# Measurements from US9409952B2, “Peptide-compound cyclization method” (Chugai Seiyaku Kabushiki Kaisha, priority 2011, dated 2016).
# Where two headings read alike, the source gives them in different places. Starred links: 1 amine or outer side, 2 acyl side, 3 side chain; linkers in the order of their positions; H or OH if unused. Non-standard residues stand in square brackets, D forms with d. Residues, ends and D or L forms follow the SMILES beside them. *: point of attachment. Phe(4-CF3) = N[C@@H](Cc1ccc(C(F)(F)F)cc1)C(=O)O; NMePhe(3-Cl) = CN[C@@H](Cc1cccc(Cl)c1)C(=O)O; NMeF = CN[C@@H](Cc1ccccc1)C(=O)O; NMeGABA = CN(CCCC(=O)[*:2])[*:1]; NMeI = CC[C@H](C)[C@H](NC)C(=O)O; NMeβAla = CN(CCC(=O)[*:2])[*:1]; NMeL = CN[C@@H](CC(C)C)C(=O)O; NMeA = CN[C@@H](C)C(=O)O; dNMeA = CN[C@H](C)C(=O)O; β3hA = C[C@H](N)CC(=O)O; Sar = CNCC(=O)O; tBu = CC(C)(C)*
# Assays:
# [1] = Metabolic stability in human hepatic microsome; format: in vitro ADME; settings: microsomes
# [2] = PAMPA (parallel artificial membrane permeability assay); format: in vitro ADME; settings: PAMPA
# Procedure, shortened: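 Artificial membrane was 10% (w/v) egg lecithin plus 0.5% (w/v) cholesterol in dodecane on a PVDF filter. A 10 mM DMSO stock was added at 0.5% (v/v) to donor buffer (50 mM MOPSO, pH 6.5, 5.0% glycocholic acid). After 18 h at 37 °C, LC/MS or LC/UV gave donor and acceptor levels for Pe.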
# [3] = pH 7.4, human hepatic microsome, NADPH(+), read-out: CL NADPH(+)
# [4] = membrane permeation rate (Pe), 50 mM MOPSO buffer pH 6.5 with 5.0% glycocholic acid, 37° C., 18 hours, read-out: iPAMPA Pe
"microsomal CLint at 1 uM ([1]; human, pH 7.4, CL NADPH(+)) [µL/min/mg]","Papp at 18 hours, 50 µM ([2]; pH 6.5) [×10⁻⁶ cm/s]",Compound,"microsomal CLint at 1 uM [1, 3] [µL/min/mg]","Papp at 18 hours, 50 µM [2, 4] [×10⁻⁶ cm/s]"
78,37,CC[C@H](C)[C@H]1C(=O)N[C@@H](COC(C)(C)C)C(=O)N[C@@H](C)CC(=O)N(C)[C@@H](C)C(=O)N(C)[C@@H](Cc2ccccc2)C(=O)N(C)CC(=O)N(C)[C@@H](CC(C)C)C(=O)N[C@@H]([C@@H](C)O)C(=O)N(C)[C@@H](C)C(=O)N(C)[C@@H](CC(C)C)C(=O)N1C [DP-779] (cyclo([NMeA][NMeF][Sar][NMeL]T[NMeA][NMeL][NMeI]S(tBu)[β3hA])),,
249,41,CC[C@H](C)[C@@H]1NC(=O)[C@H](CC(C)C)N(C)C(=O)[C@H](Cc2ccccc2)N(C)C(=O)[C@@H](C(C)C)NC(=O)C[C@H](C)NC(=O)[C@H](CC(C)C)N(C)C(=O)[C@H](C)N(C)C(=O)[C@H]([C@@H](C)O)NC(=O)[C@H](Cc2ccccc2)N(C)C(=O)[C@H](C)N(C)C1=O [DP-780] (cyclo(I[NMeA][NMeF]T[NMeA][NMeL][β3hA][dV][NMeF][NMeL])),,
142,29,CC[C@H](C)[C@@H]1NC(=O)[C@H](CC(C)C)N(C)C(=O)[C@H](Cc2ccccc2)N(C)C(=O)[C@@H](C(C)C)NC(=O)C[C@H](C)NC(=O)[C@H](CC(C)C)N(C)C(=O)[C@H](C)N(C)C(=O)[C@H]([C@@H](C)O)NC(=O)[C@H](Cc2ccccc2)N(C)C(=O)[C@H](CC(C)C)N(C)C1=O [DP-781] (cyclo(I[NMeL][NMeF]T[NMeA][NMeL][β3hA][dV][NMeF][NMeL])),,
127,10,CC[C@H](C)[C@@H]1NC(=O)[C@H](CC(C)C)N(C)C(=O)[C@H](Cc2ccccc2)N(C)C(=O)[C@@H](C(C)C)NC(=O)C[C@H](C)NC(=O)[C@H](CC(C)C)N(C)C(=O)[C@H](C)N(C)C(=O)[C@H]([C@@H](C)O)NC(=O)[C@H](Cc2cccc(Cl)c2)N(C)C(=O)[C@H](CC(C)C)N(C)C1=O [DP-782] (cyclo(I[NMeL][NMePhe(3-Cl)]T[NMeA][NMeL][β3hA][dV][NMeF][NMeL])),,
269,31,CC[C@H](C)[C@@H]1NC(=O)[C@H](C)N(C)C(=O)[C@@H](C)N(C)C(=O)C[C@H](C)NC(=O)[C@H](CC(C)C)N(C)C(=O)[C@H](C)N(C)C(=O)[C@H](Cc2ccccc2)N(C)C(=O)[C@H]([C@@H](C)O)NC(=O)[C@H](Cc2ccccc2)N(C)C(=O)[C@H](CC(C)C)N(C)C1=O [DP-783] (cyclo(I[NMeL][NMeF]T[NMeF][NMeA][NMeL][β3hA][dNMeA][NMeA])),,
97,46,CC(C)C[C@@H]1NC(=O)[C@H](Cc2ccccc2)NC(=O)[C@H](CC(C)C)N(C)C(=O)[C@H](Cc2ccccc2)NC(=O)[C@@H](C)N(C)C(=O)C[C@H](C)NC(=O)[C@H](Cc2ccccc2)N(C)C(=O)CNC(=O)[C@H]([C@@H](C)O)NC(=O)[C@H](CC(C)C)NC1=O [DP-784] (cyclo(FLLTG[NMeF][β3hA][dNMeA]F[NMeL])),,
193,29,CC(C)C[C@H]1C(=O)N(C)[C@@H](Cc2ccccc2)C(=O)NCC(=O)N[C@@H](C)CC(=O)N(C)CCCC(=O)N[C@@H]([C@@H](C)O)C(=O)N(C)[C@@H](C)C(=O)N(C)[C@@H](Cc2ccccc2)C(=O)N[C@@H](COC(C)(C)C)C(=O)N1C [DP-785] (cyclo(G[β3hA][NMeGABA]T[NMeA][NMeF]S(tBu)[NMeL][NMeF])),,
,,CC(C)C[C@H]1C(=O)N[C@@H](COC(C)(C)C)C(=O)N[C@@H](C)CC(=O)N[C@H](C)C(=O)N(C)[C@@H](C)C(=O)N(C)[C@@H](Cc2ccccc2)C(=O)N(C)[C@@H](C)C(=O)N[C@@H]([C@@H](C)O)C(=O)N(C)[C@@H](C)C(=O)N1C [DP-786] (cyclo([NMeA][NMeF][NMeA]T[NMeA][NMeL]S(tBu)[β3hA][dA])),14,5.9
,,CC(C)C[C@H]1C(=O)N[C@@H](COC(C)(C)C)C(=O)N[C@@H](C)CC(=O)N[C@H](C)C(=O)N(C)[C@@H](C)C(=O)N(C)[C@@H](Cc2ccccc2)C(=O)N(C)[C@@H](CC(C)C)C(=O)N[C@@H]([C@@H](C)O)C(=O)N(C)[C@@H](C)C(=O)N1C [DP-787] (cyclo([NMeA][NMeF][NMeL]T[NMeA][NMeL]S(tBu)[β3hA][dA])),33,29
,,CC(C)C[C@H]1C(=O)N(C)[C@@H](Cc2ccccc2)C(=O)N(C)[C@@H](CC(C)C)C(=O)N[C@@H](C)CC(=O)N[C@H](C(C)C)C(=O)N[C@@H](C)C(=O)N[C@@H]([C@@H](C)O)C(=O)N(C)[C@@H](C)C(=O)N[C@@H](Cc2ccccc2)C(=O)N1C [DP-788] (cyclo(AT[NMeA]F[NMeL][NMeF][NMeL][β3hA][dV])),158,49
,,CC[C@H](C)[C@H]1C(=O)N[C@@H](C)CC(=O)N(C)[C@H](C)C(=O)N(C)[C@@H](Cc2ccccc2)C(=O)N(C)[C@@H](CC(C)C)C(=O)N[C@@H]([C@@H](C)O)C(=O)N(C)CC(=O)N[C@@H](COC(C)(C)C)C(=O)N(C)[C@@H](CC(C)C)C(=O)N1C [DP-789] (cyclo([NMeF][NMeL]T[Sar]S(tBu)[NMeL][NMeI][β3hA][dNMeA])),113,35
,,CC(C)C[C@@H]1NC(=O)[C@@H](C(C)C)NC(=O)C[C@H](C)NC(=O)[C@H](CC(C)C)N(C)C(=O)[C@H](Cc2ccccc2)N(C)C(=O)[C@H](CC(C)C)N(C)C(=O)[C@H](Cc2ccc(C(F)(F)F)cc2)NC(=O)[C@H](C)N(C)C(=O)[C@H]([C@@H](C)O)NC1=O [DP-790] (cyclo(LT[NMeA][Phe(4-CF3)][NMeL][NMeF][NMeL][β3hA][dV])),40,56
,,CC(C)C[C@@H]1NC(=O)[C@H](Cc2ccccc2)N(C)C(=O)[C@H](C)N(C)C(=O)C[C@H](C)NC(=O)[C@H]([C@@H](C)O)NC(=O)[C@H](CC(C)C)N(C)C(=O)[C@H](Cc2ccccc2)NC(=O)[C@H](CC(C)C)N(C)C(=O)[C@H](CC(C)C)N(C)C1=O [DP-791] (cyclo(F[NMeL]T[β3hA][NMeA][NMeF]L[NMeL][NMeL])),794,41
,,CC(C)C[C@@H]1NC(=O)[C@@H](C(C)C)NC(=O)C[C@H](C)NC(=O)[C@H](CC(C)C)N(C)C(=O)[C@H](Cc2cccc(Cl)c2)N(C)C(=O)[C@H](CC(C)C)N(C)C(=O)[C@H](Cc2ccc(C(F)(F)F)cc2)NC(=O)[C@H](C)N(C)C(=O)[C@H]([C@@H](C)O)NC1=O [DP-792] (cyclo(LT[NMeA][Phe(4-CF3)][NMeL][NMePhe(3-Cl)][NMeL][β3hA][dV])),16,33
,,CC(C)C[C@@H]1NC(=O)[C@H](Cc2ccccc2)N(C)C(=O)[C@H](CC(C)C)N(C)C(=O)[C@@H](C)N(C)C(=O)C[C@H](C)NC(=O)[C@H](CC(C)C)N(C)C(=O)[C@H](Cc2ccccc2)N(C)C(=O)[C@H]([C@@H](C)O)NC(=O)[C@H](Cc2ccccc2)N(C)C1=O [DP-793] (cyclo(L[NMeF]T[NMeF][NMeL][β3hA][dNMeA][NMeL][NMeF])),218,53
,,CC(C)C[C@H]1C(=O)NCC(=O)N[C@@H](C)CC(=O)N(C)CCC(=O)N[C@@H]([C@@H](C)O)C(=O)N(C)[C@@H](C)C(=O)N[C@@H](COC(C)(C)C)C(=O)N(C)[C@@H](Cc2ccccc2)C(=O)N1C [DP-794] (cyclo(G[β3hA][NMeβAla]T[NMeA]S(tBu)[NMeF][NMeL])),43,3.7
,,CC(C)C[C@H]1C(=O)N(C)[C@@H](CC(C)C)C(=O)N[C@@H](C)CC(=O)N(C)CCCC(=O)N(C)[C@@H](Cc2ccccc2)C(=O)N[C@@H]([C@@H](C)O)C(=O)N(C)CC(=O)N[C@@H](COC(C)(C)C)C(=O)N1C [DP-795] (cyclo([NMeF]T[Sar]S(tBu)[NMeL][NMeL][β3hA][NMeGABA])),143,19
,,CC(C)C[C@H]1C(=O)N(C)[C@@H](Cc2ccccc2)C(=O)N[C@@H](C)CC(=O)N[C@H](C(C)C)C(=O)N[C@@H](C)C(=O)N[C@@H]([C@@H](C)O)C(=O)N(C)[C@@H](C)C(=O)N[C@@H](Cc2ccccc2)C(=O)N1C [DP-796] (cyclo(AT[NMeA]F[NMeL][NMeF][β3hA][dV])),66,20
,,CC(C)C[C@H]1C(=O)N[C@@H](C)CC(=O)N(C)[C@H](C)C(=O)N(C)[C@@H](Cc2ccccc2)C(=O)N(C)[C@@H](CC(C)C)C(=O)N[C@@H]([C@@H](C)O)C(=O)N(C)CC(=O)N[C@@H](COC(C)(C)C)C(=O)N1C [DP-797] (cyclo([NMeF][NMeL]T[Sar]S(tBu)[NMeL][β3hA][dNMeA])),91,26
,,CC(C)C[C@@H]1NC(=O)[C@H](C)NC(=O)C[C@H](C)NC(=O)[C@H](Cc2ccccc2)N(C)C(=O)[C@H](CC(C)C)N(C)C(=O)[C@H](C)NC(=O)[C@H](Cc2ccccc2)N(C)C(=O)[C@H](CC(C)C)N(C)C1=O [DP-798] (cyclo(AL[NMeL][NMeF]A[NMeL][NMeF][β3hA])),1540,69
,,CC[C@H](C)[C@H]1C(=O)N[C@@H](C)CC(=O)N(C)[C@H](C)C(=O)N(C)[C@@H](Cc2cccc(Cl)c2)C(=O)N(C)[C@@H](CC(C)C)C(=O)N[C@@H]([C@@H](C)O)C(=O)N(C)CC(=O)N[C@@H](COC(C)(C)C)C(=O)N(C)[C@@H](CC(C)C)C(=O)N1C [DP-799] (cyclo([NMeI][β3hA][dNMeA][NMePhe(3-Cl)][NMeL]T[Sar]S(tBu)[NMeL])),222,32
,,CC[C@H](C)[C@H]1C(=O)N[C@@H](C)CC(=O)N(C)[C@H](C)C(=O)N(C)[C@@H](CC(C)C)C(=O)N(C)[C@@H](CC(C)C)C(=O)N[C@@H]([C@@H](C)O)C(=O)N(C)CC(=O)N[C@@H](COC(C)(C)C)C(=O)N(C)[C@@H](CC(C)C)C(=O)N1C [DP-800] (cyclo([NMeI][β3hA][dNMeA][NMeL][NMeL]T[Sar]S(tBu)[NMeL])),58,25
